Among the test systems are CCRF-CEM leukemia; HT29 colon; K-562 leukemia; KM12 colon; LOX IMVI melanoma; M14 melanoma; NCI-H522 lung; NCI/ADR-RES ovarian; OVCAR-3 ovarian; RPMI-8226 leukemia; SF-268 CNS; SK-MEL-28 melanoma; SN12C renal; SR leukemia; TK-10 renal.
Common to all, as to test: NCI tumour cell line growth inhibition, 48 h

Structures are written as SMILES. Values joined by “and” are separate entries in the source; they are usually repeats but may differ in a detail not shown here. Equal values may be shown once.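 Following 48 hours of exposure in 96-well plates, responses at five concentrations were used to interpolate endpoints linearly. GI50 = concentration required for 50% inhibition of growth. TGI: concentration producing complete growth inhibition.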

Consider `OC(CN(CCCl)CCCl)C(O)C(O)C(O)CN(CCCl)CCCl` (stereo not drawn), for which the TGI in the test with CCRF-CEM leukemia, in the test on HT29 colon, in the test with K-562 leukemia, in the test with KM12 colon, in the test with LOX IMVI melanoma and in the test on M14 melanoma was over 100 µM throughout. In addition, the TGI with NCI-H522 lung, in the test on NCI/ADR-RES ovarian, with OVCAR-3 ovarian, in the test on RPMI-8226 leukemia, in the test on SF-268 CNS and in the test on SK-MEL-28 melanoma was over 100 µM throughout. For the same compound, the TGI in the test with SN12C renal, in the test on SR leukemia and in the test with TK-10 renal was over 100 µM each time.
Regarding `CC(C)=CCC[C@@H](C)C1=C(O)C(Nc2ccccc2Cl)=C(C)C(=O)C1=O`, the TGI in the test with CCRF-CEM leukemia is over 21.3 µM; in the test with HT29 colon, 26.3 µM; in the test with K-562 leukemia, over 75 µM; in the test with KM12 colon it was 30 µM; in the test on LOX IMVI melanoma it was over 75 µM; with M14 melanoma, over 59.9 µM. The TGI was 22.7 µM in the test on NCI-H522 lung; 11.9 µM in the test with NCI/ADR-RES ovarian; over 75 µM in the test with OVCAR-3 ovarian; over 55.8 µM in the test on RPMI-8226 leukemia; over 75 µM with SF-268 CNS; over 75 µM in the test on SK-MEL-28 melanoma. The values for the TGI in the test on SN12C renal, in the test with SR leukemia and in the test on TK-10 renal were over 75 µM, 72.1 µM and over 75 µM, respectively.
In the case of `COc1ccc(N=NC(=O)NC(CC(C)C)C(=O)NCC(=O)O)cc1` (stereo not drawn), the TGI in the test on CCRF-CEM leukemia was over 100 µM; in the test on HT29 colon, over 100 µM; with K-562 leukemia, over 29.1 µM; in the test on KM12 colon, over 100 µM; in the test with LOX IMVI melanoma, over 100 µM; in the test with M14 melanoma, over 100 µM. Also, the TGI with NCI-H522 lung, with NCI/ADR-RES ovarian, in the test with OVCAR-3 ovarian, with RPMI-8226 leukemia, in the test on SF-268 CNS and in the test with SK-MEL-28 melanoma was over 100 µM in each case. The TGI in the test with SN12C renal, in the test on SR leukemia and in the test with TK-10 renal was over 100 µM in each case.
Consider `COC(=O)CCNC(=O)OCc1ccccc1`, for which the TGI with CCRF-CEM leukemia, in the test on HT29 colon, in the test with K-562 leukemia, in the test with KM12 colon, in the test with LOX IMVI melanoma and in the test with M14 melanoma was over 100 µM throughout. The TGI in the test with NCI-H522 lung, in the test on NCI/ADR-RES ovarian, in the test on OVCAR-3 ovarian, in the test with RPMI-8226 leukemia, in the test on SF-268 CNS and in the test on SK-MEL-28 melanoma was over 100 µM in each case. For the same compound, the TGI in the test with SN12C renal, with SR leukemia and with TK-10 renal was over 100 µM throughout.
For the compound `COc1ccc(COC(=O)NCC(=O)NC(C)C(=O)NC(Cc2ccccc2)C(=O)OCc2ccccc2)cc1` (stereo not drawn), the TGI with CCRF-CEM leukemia is > 100 µM and 43.9 µM; in the test on HT29 colon, 86.4 µM and 33.1 µM; in the test with K-562 leukemia it was > 100 µM and 52.6 µM; in the test on KM12 colon, > 100 µM and 46.3 µM; with LOX IMVI melanoma, 79.1 µM and 38.8 µM; in the test on M14 melanoma, 31.8 µM and > 100 µM. For the same compound, the TGI is 29.3 µM and 31.1 µM in the test with NCI-H522 lung; over 100 µM in the test on NCI/ADR-RES ovarian; 64.2 µM and 50.7 µM with OVCAR-3 ovarian; > 100 µM and 57.1 µM in the test with RPMI-8226 leukemia; > 100 µM and 55.2 µM with SF-268 CNS; 39.5 µM and 34.8 µM with SK-MEL-28 melanoma. Further, the TGI is > 100 µM and 51.9 µM in the test on SN12C renal; > 100 µM and 51.7 µM with SR leukemia; over 100 µM in the test with TK-10 renal. Also, the GI50 in the test with KM12 colon was 62.8 µM and 23.9 µM; in the test with M14 melanoma it was 18 µM and 37.5 µM; with TK-10 renal, 39.5 µM and > 100 µM.
On to `CC(C)=CCCC(C)CCOS(=O)C(F)(F)F` (stereo not drawn), for which the TGI was over 100 µM in the test with CCRF-CEM leukemia; 28.5 µM in the test on HT29 colon; over 100 µM in the test on K-562 leukemia; over 100 µM with KM12 colon; 37.2 µM in the test with LOX IMVI melanoma; 6.59 µM in the test on M14 melanoma. For the same compound, the TGI was found to be 5.12 µM in the test on NCI-H522 lung; 30.4 µM in the test with NCI/ADR-RES ovarian; 27.8 µM in the test on OVCAR-3 ovarian; 90.8 µM in the test with RPMI-8226 leukemia; 44.7 µM in the test on SF-268 CNS; 34.6 µM in the test with SK-MEL-28 melanoma. The TGI in the test with SN12C renal was 41.7 µM; in the test with SR leukemia, 10.3 µM; in the test with TK-10 renal, over 100 µM.
As to `COC(=O)c1cc(NC(=O)Cc2c[nH]c3ccccc23)cn1C`, the TGI in the test with CCRF-CEM leukemia, in the test with HT29 colon, in the test with K-562 leukemia, with KM12 colon, in the test on LOX IMVI melanoma and with M14 melanoma was over 100 µM each time. Also, the TGI was over 100 µM in the test on NCI-H522 lung; over 100 µM with NCI/ADR-RES ovarian; over 100 µM in the test on OVCAR-3 ovarian; 63.9 µM in the test on RPMI-8226 leukemia; over 100 µM in the test with SF-268 CNS; over 100 µM in the test with SK-MEL-28 melanoma. Besides, the TGI in the test on SN12C renal, in the test with SR leukemia and in the test with TK-10 renal was over 100 µM throughout.
Consider `Cc1cccc2sc(-c3ccc(O)cc3)nc12`, for which the TGI with CCRF-CEM leukemia is 49.6 µM; in the test on HT29 colon, 28.7 µM; in the test on K-562 leukemia, over 100 µM; with KM12 colon, 31.6 µM; with LOX IMVI melanoma it was 49.6 µM; in the test on M14 melanoma, 28.5 µM. Further, the TGI is 31.7 µM with NCI-H522 lung; 38.9 µM in the test on NCI/ADR-RES ovarian; 29.8 µM in the test with OVCAR-3 ovarian; 44.2 µM in the test on RPMI-8226 leukemia; 31.9 µM in the test on SF-268 CNS; 33.4 µM with SK-MEL-28 melanoma. Besides, the figures for the TGI in the test with SN12C renal, in the test with SR leukemia and with TK-10 renal were 34.3 µM, 47.3 µM and 42.1 µM, respectively.
Turning to `COc1ccccc1C(O)[C@@H]1C[C@@H]2[C@H]3CC[C@@](C)([C@@H]2O1)C3(C)C` (stereo partly drawn), the TGI with CCRF-CEM leukemia turned out to be 44.1 µM; with HT29 colon, 39.1 µM; in the test with K-562 leukemia, 52.3 µM; in the test on KM12 colon, 41.6 µM; with LOX IMVI melanoma, 35.8 µM; with M14 melanoma, 40.1 µM. Besides, the TGI in the test with NCI-H522 lung came to 38.5 µM; with NCI/ADR-RES ovarian it was 42 µM; in the test with OVCAR-3 ovarian it was 31.3 µM; with RPMI-8226 leukemia, 78.7 µM; in the test with SF-268 CNS, 58 µM; with SK-MEL-28 melanoma, 37.3 µM. The values for the TGI in the test on SN12C renal, in the test with SR leukemia and with TK-10 renal were 30.3 µM, 48.3 µM and 50.7 µM, respectively.

The values are drawn from PubChem BioAssay (NCI).
